Experimental data from PMC5737332.

How the values were obtained:
[1] = test system: AATAAT_ATTATT hairpin (DNA, hairpin) GGGGAATAATCGCGATTATTCCCCAATAATCGCGATTATT; experiment: SPR competition; conditions: 200 mM NaCl, 3 mM EDTA, 10 mM HEPES pH 7.4, 0.05% P-20, 25 °C
[2] = test system: AATAAT_ATTATT hairpin (DNA, hairpin) GGGGAATAATCGCGATTATTCCCCAATAATCGCGATTATT; experiment: SPR (Biacore X-100); conditions: Na+ 200 mM; 25 °C; site 1 of 2; running buffer for compound titration not explicitly stated
[3] = test system: AATT hairpin (DNA, hairpin) CGAATTCGTCTCCGAATTCG; experiment: SPR (Biacore X-100); conditions: Na+ 200 mM; 25 °C; site 1 of 2; running buffer for compound titration not explicitly stated
[4] = test system: (AT)4 hairpin (DNA, hairpin) CATATATATCCCCATATATATG; experiment: SPR (Biacore X-100); conditions: Na+ 200 mM; 25 °C; site 1 of 2; running buffer for compound titration not explicitly stated
[5] = test system: (CG)4 hairpin (DNA, hairpin) CGCGCGCGTTTTCGCGCGCG; experiment: SPR (Biacore X-100); conditions: Na+ 200 mM; 25 °C; one-site fit; running buffer for compound titration not explicitly stated
HMGB1 box A and box B = HMGB1 box A and box B (rat, UniProt P63159 8-165); experiment: SPR; K1, high-affinity site of two-site fit; SPR (Biacore X-100), HEPES 1 buffer: 10 mM HEPES, 3 mM EDTA, 200 mM NaCl, 0.05% P-20, pH 7.4, 25 C; conditions: protein: recombinant; tags: GST (GST-tagged construct in pGEX2T); label: 5'-biotin; hairpin as stated by the authors; loop underlining lost in text
HMGB1 box A and box B, sequence (P63159 8-165): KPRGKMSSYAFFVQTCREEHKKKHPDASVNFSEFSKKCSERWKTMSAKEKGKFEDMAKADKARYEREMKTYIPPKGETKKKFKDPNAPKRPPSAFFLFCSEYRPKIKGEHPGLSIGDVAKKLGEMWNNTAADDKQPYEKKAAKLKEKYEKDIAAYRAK

Molecule: O=C(Nc1ccc(NC2=NCCN2)c(Cl)c1)c1ccc(NC2=NCCN2)cc1
- IC50 ([1]; displaces 2 μM HMGA1a(Δ50-91) protein): 6000 nM
- IC50 ([1]; displaces 2 μM HMGB1 (box A+B) protein): 3400 nM
- K1 (KD) [2]: 430 nM
- K1 (KD) [3]: 262 nM
- K1 (KD) [4]: 650 nM
- K (KD) [5]: 6850 nM

Molecule: GGGGAATAATCGCGATTATTCCCCAATAATCGCGATTATT (structured_DNA) [AATAAT_ATTATT hairpin]
- Kd (HMGB1 box A and box B): 330 nM
